These results are taken from ChEMBL document CHEMBL4828716, “Further investigation of harmicines as novel antiplasmodial agents: Synthesis, structure-activity relationship and insight into the mechanism of action” (Eur J Med Chem, 2021).

The source made the active and inactive calls. The calls are words filed in the database; no cut-off is given here.

For orientation: IC50 means the point on the concentration scale where inhibition reaches its midpoint.

Data set [1] relates to Plasmodium falciparum. In words: Antiplasmodial activity against chloroquine-sensitive erythrocytic stage Plasmodium falciparum 3D7 assessed as inhibition of parasite growth incubated for 3 days by HRP2-ELISA. Conditions: 3D7, 72 h. It is filed as functional, organism-based. In general terms: ELISA stands for enzyme-linked immunosorbent assay.
The next data set has as its system HepG2. In words: Cytotoxicity against human HepG2 cells assessed as cell growth inhibition incubated for 1 day by neutral red assay. The class given is functional, cell-based. Conditions: HepG2, 24 h.
The subject of the next data set is Plasmodium berghei. Briefly: Antiplasmodial activity against hepatic stage Plasmodium berghei infected in Huh-7 cells assessed as cell viability incubated for 1 hrs by bioluminescence assay. It is filed as functional, organism-based.
The test system of data set [2] is Plasmodium falciparum. In words: Antiplasmodial activity against chloroquine-resistant erythrocytic stage Plasmodium falciparum Dd2 assessed as inhibition of parasite growth incubated for 3 days by HRP2-ELISA. The class given is functional, organism-based. To be noted: Dd2, 72 h.
The nature of data set [3]: Selectivity index, ratio of IC50 for human HepG2 cells to IC50 for […] erythrocytic stage Plasmodium falciparum 3D7. It is filed as toxicity. Conditions: read-out: Selectivity Index.

Turning to `Cc1nccc2c1[nH]c1ccc(OCCNC(=O)/C=C/c3cccc(Br)c3)cc12`, the IC50 with Plasmodium falciparum [1] worked out at 0.19 µM; with HepG2 it was 7.57 µM; with Plasmodium falciparum [2] it was 0.63 µM. Also, the result in the data set with Plasmodium berghei was Active. Also, in data set [3], the selectivity ratio was 39.8.
Regarding `COc1ccc2c3ccnc(C)c3n(CCNC(=O)/C=C/c3ccc(C(F)(F)F)cc3)c2c1`, the IC50 with Plasmodium falciparum [1] amounted to 0.04 µM; in the data set on HepG2, 5.84 µM; with Plasmodium berghei (Huh-7, 1 h), 8.4 µM; with Plasmodium falciparum [2], 0.17 µM. In addition, the selectivity ratio in data set [3] was found to be 146.
For `Cc1nc(Cn2cc(COC(=O)/C=C/c3ccc(Cl)cc3)nn2)cc2c1[nH]c1ccccc12`, the IC50 in the data set on Plasmodium falciparum [1] was 21.4 µM; in the data set on HepG2, 70.5 µM; with Plasmodium falciparum [2] it was greater than 27.8 µM. Moreover, the result in the data set with Plasmodium berghei was Active. The selectivity ratio in data set [3] turned out to be 3.29.
